Where two headings read alike, the source gives them in different places.
Tests used:
[1] = test system: HDAC in primary mouse cortical neurons; assay: Whole-Cell Histone Deacetylase (HDAC) Inhibition Assay in Primary Mouse Cortical Cultures; format: cell-based
Description: Primary neocortical cultures are established through the dissection of the neocortex from E17 embryos harvested from time-pregnant Balb/C mice. Following dissection, the neocortical tissue specimens undergo digestion by incubation at 37° C. for 10 minutes in dissection medium (1×HBSS/10 mM HEPES/1 mM Sodium Pyruvate) supplemented with (0.25%) Trypsin and (0.1%) DNase I. Digested tissue is washed and resuspended in plating medium (NeuroBasal/10% HS/0.5 mM L-Glutamine (Invitrogen Corporation)) for trituration. Additional plating medium is added, and the contents are passed over a 70 um cell-strainer. The cell-density is quantified using a hemacytometer, and dilutions are made to allow for the plating of 50000 cells/well/100 uL in 96-well PDL-coated plates. Plates are incubated for 4-5 hours in 37° C./5% CO2-incubator, after which time the entire volume is exchanged to feeding medium (NeuroBasal/2% B-27 Serum-free supplement/0.5 mM L-Glutamine/1% Penicillin-Streptomycin (Invitrogen Corporation)). The cultures undergo two 50% fresh feeding medium exchanges at 3 days in vitro (DIV3), and again at DIV7.
Compounds for testing are resuspended in dimethyl sulphoxide (DMSO), and further diluted in DMSO for a ten-point dose-response curve, with appropriate controls. Each master plate is assayed in triplicate. […] Three DIV9 culture plates are leveled to 50 uL/well, onto which each has overlaid 50 uL/well of the diluted daughter plate. The plates are returned to the 37° C./5% CO2-incubator for 16-18 hours.
The next step of the assay involves the exposure of a HDAC colorimetric substrate, comprising an acetylated lysine side chain, to the compound-treated neuronal cultures. Based on the ability of the compound to inhibit HDAC activity in the neuronal cultures, the substrate is deacetylated by HDACs, and subsequently sensitized. […] Compound-incubated culture plates are again leveled to 50 uL/well and 2 uL/well of 7.5 mM BOC-Lys (Ac)-AMC substrate is added and thoroughly mixed. Plates are returned to the 37° C./5% CO2-incubator for 1 hour.
The final addition to the culture plates entails treatment with a Fluor de LyS™-based developer (BIOMOL Research Laboratories, Inc.) to produce a fluorophore, which is analyzed using a spectrophotometer. The developer solution (1× Fluor de Lys™/1% NP-40/1 uM TSA in HDAC Buffer Solution) is prepared, and 50 uL/well is added to each of the wells of the culture plates. […] The plates are returned to the 37° C./5% CO2-incubator for 10-15 minutes, after which time, they are removed and set in the dark at room temperature for 5-10 minutes.

[2] = target: histone deacetylase (HDAC Enzyme); assay: Inhibition of Histone Deacetylase Enzymatic Activity (Boc-Lys(Ac)-AMC, Fluor-de-Lys developer); format: biochemical
Description: The following protocol is used to assay the compounds of the invention.
The mixture is pre-incubated for 5 minutes at room temperature. The reaction is started by bringing the temperature to 37° C. and adding 16 μl substrate. Total reaction volume is 50 μl.
In the Tables 8, 9 and 10, A≦[…]<B≦0.1 μM; 0.1 μM<C≦1 μM; and 1 μM<D≦10 μM.

[3] = test system: Drosophila Huntington's Disease model flies; assay: In Vivo Drosophila Fly Assay for Treatment of Huntington's Disease (automated climbing behavior, early/late speed effect size); parameters: species or system Drosophila melanogaster; conditions: for Speed 1 to 7 (effect size, early speed): average speed days 1-7 vs DMSO-carrier control; for Speed 8 to 10 (effect size, late speed): average speed days 8-10 vs DMSO-carrier control
Text: The Drosophila Huntington's Disease assay used to screen compounds of the present invention followed that of WO 2007/002497, which is hereby incorporated by reference in its entirety.
Briefly, parental (model and driver) lines are maintained in sufficient quantities to provide virgins and males for assay crosses as well as perpetuating the lines. Disease model flies are maintained with the disease genes “silent”, functionally linked to a UAS enhancer element. The “driver” lines contain a GAL4 element under the control of a tissue-specific promoter. These are crossed together to generate the assay flies which have tissue-specific (i.e. CNS) expression of the disease gene(s).
Weekly assay crosses are set up with sufficient virgins and males to generate enough assay embryos for sorting. Approximately 50,000 males and 75,000 virgins are crossed in population cages. Embryos are collected for an eight hour window two days later. The embryos are then sorted onto 16 mm assay vials containing regular fly media and allowed to develop. Flies containing both the GAL4 driver element and the disease gene(s) are detected by the presence of GFP, a fluorescing protein. Approximately 10 assay flies eclose per vial, the optimal number for the behavioral assay. Once the flies eclose, they are transferred onto assay vials containing liquid Drosophila food. Similarly, control crosses are set up with virgins of the driver and males from a non-disease UAS line. Throughout fly production and the assay days, all flies are maintained at constant temperature and humidity, with preset light cycle, optimized for the particular lines and crosses.
Quality control (QC) for the parental lines is carried out weekly by collecting a sample of random male flies from each line. Single-fly PCR is carried out to ascertain the presence of the GAL4 or UAS element. If greater than 5% of the individuals lack the appropriate element, the assay cross is aborted. A second form of QC is also carried out to ensure that the GAL4 element is able to drive expression of a transgene. A sample of individual “driver” virgins is crossed to UAS-GFP males. Their progeny are visually checked for GFP expression in the appropriate tissues. Lack of GFP in greater than 4% of the crosses results in the assay being aborted.
Test compounds are weighed out and dissolved in DMSO at stock concentrations 100× what is desired in the assay and arrayed into 96-well master plates, including wells for DMSO-only controls and the positive control(s). A single well is reserved for a colored dye used to ensure proper orientation of compounds during drug dispensing and fly transfer. Replicate daughter plates for each day of the assay are stamped out. The plates are bar coded and stored at −20 C until used for the assay.
For a particular assay day, the plates are thawed and a robotic liquid handler is used to dilute the test compound into the liquid fly food and dispense the mixture into the assay vials. For Huntington Disease (HD) models, eight replicates per single treatment (one compound, one concentration) are dispensed. Fresh test compound treated media is made daily during an assay.
On the day the assay flies eclose (emerge from […]; assay Day 0) they are transferred to the test compound treated vials. On assay Day 1, the flies are transferred onto clean test compound treated vials one hour before assay time. They are then placed in the assay machine to acclimate to the appropriate climate conditions.
The assay machine is an environmentally-enclosed and controlled robot that can maintain user-set temperature and humidity. The machine can hold up to sixteen 96-vial racks in four quadrants, for a total of 1536 vials. There are four camera stations, which hold four vials each and a CCD camera for movie capture. […]

[4] = Table 10, whole-cell, read-out: HDAC Inhibition (IC50 μM) WC mouse cortical neurons
[5] = Table 10, read-out: HDAC Inhibition (IC50 μM) HDAC Enzyme
[6] = read-out: HDAC Inhibtion (IC50 μM) HDAC Enzyme
[7] = Table 9, read-out: HDAC Inhibition (IC50 μM) HDAC Enzyme

For `O=C(NO)c1ccc(OCCN2C(=O)CCOc3ccccc32)cc1`, the IC50 [1, 4] was < 1 µM and the IC50 [2, 5] was < 0.05 µM.

`O=C(NO)c1ccc(OCCN2C(=O)c3cccnc3Oc3ccccc32)cc1` was tested, and the IC50 [1, 4] was < 1 µM and the IC50 [2, 5] was < 0.05 µM.

`O=C(NO)c1ccc(OCCN2C(=O)c3ccccc3Oc3ccccc32)cc1` was tested, and the IC50 [1, 4] was < 1 µM and the IC50 [2, 5] was < 0.05 µM.

`O=C(NO)c1ccc(OCCN2C(=O)c3cc(F)ccc3Oc3ccccc32)cc1` was tested, and the IC50 [1, 4] was < 1 µM and the IC50 [2, 5] was < 0.05 µM.

`O=C(NO)c1ccc(C2=Nc3ccccc3Oc3ccsc32)cc1` [(Z)-4-(benzo[b]thieno[2,3-f][1,4]oxazepin-10-yl)-N-hydroxybenzamide] was tested, and the IC50 ([1]; whole cell, read-out: HDAC Inhibtion (IC50 μM) WC mouse cortical neurons) was 1 to 5 µM and the IC50 [2, 6] was < 0.05 µM.

For `O=C(NO)c1cccc(OCCN2C(=O)c3ccccc3Oc3ccccc32)c1`, the IC50 [1, 4] was > 15 µM and the IC50 [2, 5] was 0.1 to 1 µM.

With `O=C(NO)c1ccc(OCCN2C(=O)c3ccccc3Oc3ccccc32)c(F)c1` the IC50 [1, 4] was < 1 µM and the IC50 [2, 5] was 0.05 to 0.1 µM.

`O=C(NO)c1ccc(OCCN2CCOc3ccccc3C2=O)cc1` was tested, and the IC50 [1, 4] was 1 to 5 µM and the IC50 [2, 5] was < 0.05 µM.

`O=C(NO)c1cnc(N2C3CNC(C3)C2c2cc(C(F)(F)F)ccn2)nc1` (stereo not drawn) was tested, and the “Speed 1 to 7 (effect size, early speed)” value ([3]; 30 uM) was 0.468, the “Speed 8 to 10 (effect size, late speed)” value ([3]; 30 uM) was 0.087 and the “Speed 1 to 7 (effect size, early speed)” value ([3]; 100 uM) was 0.82. The “Speed 8 to 10 (effect size, late speed)” value ([3]; 100 uM) was 0.82, the “Speed 1 to 7 (effect size, early speed)” value ([3]; 300 uM) was 0.3 and the “Speed 8 to 10 (effect size, late speed)” value ([3]; 300 uM) was 0.54.

With `O=C(NO)c1ccc(OCCN2C(=O)c3ccccc3Oc3cc(Cl)ccc32)cc1` the IC50 [1, 4] was 1 to 5 µM and the IC50 [2, 5] was < 0.05 µM.

`O=C(NO)c1ccc(OCC(=O)N2Cc3ccccc3Oc3ccccc32)cc1` was tested, and the IC50 [1, 4] was 1 to 5 µM and the IC50 [2, 5] was 0.1 to 1 µM.

In the case of `O=C(NO)c1cnc(N2C[C@@H]3C[C@H]2CN3C(=O)OC2CCOCC2)nc1` [(1S,4S)-tetrahydro-2H-pyran-4-yl 5-(5-(hydroxycarbamoyl)pyrimidin-2-yl)-2,5-diazabicyclo[2.2.1]heptane-2-carboxylate], the IC50 [2, 7] was < 0.05 µM.

Work on `O=C(NO)c1ccc(C2=Nc3ccccc3Nc3ccccc32)cc1` [(Z)-4-(5H-dibenzo[b,e][1,4]diazepin-11-yl)-N-hydroxybenzamide] yielded an IC50 [2, 6] of 0.1 to 1 µM.

With `O=C(NO)c1ccc(C2=Nc3ccccc3Oc3c(O)cccc32)cc1` [(Z)-N-hydroxy-4-(4-hydroxydibenzo[b,f][1,4]oxazepin-11-yl)benzamide] the IC50 [2, 6] was 0.05 to 0.1 µM.

In the case of `O=C(CCCCCN1C(=O)c2cccnc2N(C2CC2)c2ccccc21)NO` [6-(11-cyclopropyl-5-oxo-5H-benzo[b]pyrido[2,3-e][1,4]diazepin-6(11H)-yl)-N-hydroxyhexanamide], the IC50 [2, 5] was 0.1 to 1 µM.

In the case of `O=C(NO)c1cnc(N2C[C@@H]3C[C@H]2CN3c2ccccc2C(F)(F)F)nc1` [N-hydroxy-2-((1S,4S)-5-(2-(trifluoromethyl)phenyl)-2,5-diazabicyclo[2.2.1]heptan-2-yl)pyrimidine-5-carboxamide], the IC50 [2, 7] was 0.1 to 1 µM.

In the case of `O=C(NO)c1ccc(C2=Nc3ccccc3N(CCN3CCOCC3)c3ncccc32)cc1` [(Z)-N-hydroxy-4-(11-(2-morpholinoethyl)-11H-benzo[b]pyrido[2,3-e][1,4]diazepin-5-yl)benzamide], the IC50 [2, 6] was 0.05 to 0.1 µM.

With `O=C(NO)c1ccc(OCCN2C(=O)c3ccncc3Oc3ccccc32)cc1` the IC50 [1, 4] was < 1 µM and the IC50 [2, 5] was < 0.05 µM.

With `CN1CCC2=C(C1)Oc1ccccc1N(CCOc1ccc(C(=O)NO)cc1)C2=O` the IC50 [1, 4] was < 1 µM and the IC50 [2, 5] was < 0.05 µM.
